Assay results from patent US20200309872A1, “APPARATUS AND METHOD OF AIR-SUSPENDED BIOFABRICATION OF TISSUE-ENGINEERED ORGAN CONSTRUCTS AND CONGLOMERATES OF SPHEROIDS, CELLS AND OTHER BIOLOGICAL OBJECTS BY USING MAGNETIC FIELD” (priority 2019, published 2020).

Tests used:
Assay type in all cases: cell-based
[1] = tested on: chondrospheres from primary sheep chondrocytes; test: Fusion of 30 chondrospheres into a microtissue construct in non-adhesive microplate
Procedure: To check the possibility of microtissue construct biofabrication at different concentrations of Gd3+, 30 chondrospheres were placed in the same well of non-adhesive microplate and allowed fusion for 48 hours (FIG. 5c). […] Scale bar −500 μm.

[2] = tested on: chondrospheres from primary sheep chondrocytes; test: Estimation of spheroid cell density by cell counting on semi-thin sections
Procedure: Spheroid cell density was estimated by analysis of semi-thin sections of tissue spheroids using Image J 1.48v software (NIH, Bethesda, Md., USA).
(§1) The viability of cells within tissue spheroids was analyzed by measuring the luminescent signal generated by luciferin-luciferase interconnection as a function of cytoplasmic ATP concentration. […] The highly statistically significant difference (p<0.0005) in cell density corresponded to 85% in 50 mM Gd3+ solution compared to 100% in 0 mM Gd3+ solution, while the cell density at 250mM Gd3+ concentration was 40% (FIG. 3c).

[3] = tested on: chondrospheres from primary sheep chondrocytes; test: Spheroid fusion assay (spheroid doublets)
Procedure: Spheroid fusion assay was performed using Corning spheroid microplates (Corning, cat.# 4520). Pairs of 3-day-old tissue spheroids with a starting cell number of 8000 cells were placed in contact in 0, 50 and 250 mM Gd3+ concentrations and incubated for 7 days. Bright-field images of spheroid doublets were obtained at points 0 h, 4 h, 6 h, 1 day, 2 days, 3 days, 4 days and 7 days using Nikon Eclipse Ti-S microscope. Contact length, intersphere angle and doublet length were measured using Image J 1.48v software (NIH, Bethesda, Md., USA) and plotted as a function of time using GraphPad Prism software (GraphPad Software, Inc., La Jolla, Calif.). Doublet length (FIG. 5) was normalized to initial doublet length. Measurements for each parameter were reported as mean ±S.E.M.
To investigate the fusion of tissue spheroids at different Gd3+ concentrations, the pairs of spheroids were placed in contact with each other in the same well of low adhesion microplate and allowed to fuse for 7 days. The kinetics of tissue spheroid fusion was monitored and analyzed daily at bright-field under inverted microscope. Contact length, intersphere angle and doublet length were measured. […] Spheroid doublet in 0 mM Gd3+ solution shortened faster than spheroid doublet in 50 mM Gd3+ solution.

[4] = tested on: chondrospheres from primary sheep chondrocytes; test: Mechanical testing of tissue spheroids (parallel-plate compression, Microsquisher); settings: for elastic modulus of spheroids: 24 hours, 0 mM control 2.91±0.15 kPa
Procedure: The mechanical properties of tissue spheroids were measured by a micro-scale parallel-plate compression testing system Microsquisher (CellScale, Canada) with associated SquisherJoy software. Tissue spheroids with a starting cell number of 8000 cells were formed using Corning spheroid microplates. They were cultured 3 days and then placed in 0, 50 and 18 250 mM Gd3+ concentrations for 24 hours prior to mechanical characterization. For mechanical testing spheroids were placed in a PBS-filled bath at 37° C. and compressed to 50% deformation in 20 sec. The microbeams with diameters 152.4 μm (recommended max force […]) and 304.8 μm (recommended max force […]) were employed depending on the stiffness and sensitivity required to measure tissue spheroids from different cell types. The force-displacement data obtained from the compression test were converted to stress-strain curves and the lower portion of the curve (0-20% strain) was used to obtain a linear regression line and estimate the Young's modulus. In each group eight samples of spheroids were measured.
The influence of gadolinium Gd3+ on mechanical properties of tissue spheroids was estimated by tensiometry using parallel plates modification. […] The values of elastic modulus of spheroids in 0 and 50 mM Gd3+ solutions were 2.91±0.15 kPa and 18 2.95±0.1 kPa, correspondingly. […] This observation can be explained by low viability of tissue spheroids in 250 mM Gd3+ solution.
The sharp rise of the curve in the area of high strain values is associated with an increase of the tissue spheroid cross section. […] The stress-strain curve changes practically linearly before this strain; in this section we calculated the Young's modulus.

[5] = tested on: chondrospheres from primary sheep chondrocytes; test: Histological analysis on semi-thin sections of tissue spheroids (toluidine blue)
Procedure: Tissue spheroids were fixed with 2.5% glutaraldehyde/PBS and then treated with 1% osmium tetraoxide/PBS. The samples were dehydrated by soaking in a series of solutions of increasing concentrations of ethanol, stained with 1% uranyl acetate/70% ethanol and finally embedded to araldite-epon mixture. Semi-thin sections were prepared on a LKB-III ultratome (Sweden), stained with 1% toluidine blue and then examined using a light microscope (Leica DM 2500, Germany) equipped with a digital camera (Leica DFC 290, Germany).
A histological analysis on semi-thin sections of 3-day-old tissue spheroids was performed in order to estimate possible toxic effects and to determine an optimal nontoxic Gd3+ concentration (FIG. 3a). […] Scale bar—100μm.

[6] = tested on: chondrospheres from primary sheep chondrocytes; test: Tissue spheroid viability, CellTiter-Glo 3D (cytoplasmic ATP luminescence); settings: 24 hours of incubation
Procedure: The viability of tissue spheroids was assessed using the CellTiter-Glo 3D kit according to the manufacturer protocol. Briefly, 3-day-old tissue spheroids with a starting cell number of 8000 cells were placed in 0, 50 and 250 mM Gd3+ concentrations for 24 hours. Then CellTiter-Glo 3D kit was added and luminescence was recorded after 30 min incubation using VICTOR X3 Multilabel Plate Reader (Perkin Elmer, USA).
as §1

CNC(=O)CN(CCN(CCN(CC(=O)[O-])CC(=O)NC)CC(=O)[O-])CC(=O)[O-].[Gd+3] [Gd3+, Gadodiamide]
construct formation from 30 chondrospheres ([1]; 50 mM Gd3+, 2 days of incubation): formation of compact constructs was observed
construct formation from 30 chondrospheres ([1]; 250 mM Gd3+, 48 hours): no constructs were formed
cell density compared to 100% in 0 mM Gd3+ solution ([2]; 50 mM Gd3+ solution): 85%
cell density compared to 100% in 0 mM Gd3+ solution ([2]; 250 mM Gd3+): 40%
fusion of spheroid pair (contact length, intersphere angle, doublet length) ([3]; 50 mM Gd3+, up to 7 days): contact lengths and intersphere angles increased as a function of time and doublet lengths shortened gradually
cytotoxicity ([3]; 250 mM Gd3+): high cytotoxicity
fusion of spheroid pair ([3]; 250 mM Gd3+, up to 7 days): continued to fuse during first 24 hours and then no further progressive aggregation was observed
intersphere angle ([3]; seventh day of incubation, follows the 0 and 50 mM Gd3+ results, concentration not restated, indicates complete fusion): 179 °
effect on tissue spheroids Young's modulus ([4]; 50 mM Gd3+ in the growth medium): does not affect
elastic modulus of spheroids ([4]; 50 mM Gd3+): 2.95±0.1 kPa
decrease of Young's modulus ([4]; 250 mM Gd3+): ~93%
elastic modulus of spheroids ([4]; 250 mM Gd3+): 0.14±0.05 kPa
cell density (histology, qualitative) ([5]; 50 mM Gd3+ solution): cell density did not change
cytoplasm staining ([5]; 50 mM Gd3+ solution): slightly reduced
toxic effect on chondrospheres morphology ([5]; 250 mM Gd3+, 3-day-old spheroids, toluidine blue staining): severe toxic effect
cell density (histology, qualitative) ([5]; 250 mM Gd3+, cell death and apoptosis, pycnotic nuclei, extracellular debris): cell density dramatically reduced
viability of tissue spheroids ([6]; 50 mM Gd3+): remained viable
viability of tissue spheroids ([6]; 250 mM Gd3+): significant toxic effect
